The text below walks through data of paper PMC12073189, “Synthesis and Evaluation of a Novel Zuranolone Analog with High GABAA Receptor PAM Activity and Excellent Pharmacokinetic Profiles” (Molecules, 2025).

A short description of data set [1]: Liver microsome metabolic stability (RLM). The class given is in vitro ADME, rat. Conditions: pH 7.4; rat liver microsomes; read-out: RLM T1/2. As for the experimental part:
(§1) We quantified S1–S15 and Zuranolone using a UPLC-MS/MS (Agilent 1290 Infinity II UHPLC (Agilent Technologies, Santa Clara, CA, USA) coupled with a QTRAP 5500 MS/MS (ESI source) (SCIEX, Redwood City, CA, USA for MS/MS). The method assessed the content level of S9 and Zuranolone in microsome metabolism and in rat brain tissue and plasma. An ACQUITY UPLC Peptide BEH C18 column (Waters; 50 × 2.1 mm, 1.7 μm; 60 °C; Waters Corporation, Milford, MA, USA) was used with a mobile phase of 0.02% propionic acid in water (A) and acetonitrile (B). The gradient elution of the mobile phase B is carried out as follows: it is 10% from 0 to 0.5 min, 90% from 0.8 to 2.5 min, and 10% from 2.8 to 3.5 min, with a flow rate of 0.40 mL/min. Quantitative analysis was performed on a QTRAP 5500 MS (SCIEX, Redwood City, CA, USA) in positive ionization mode with MRM (multiple reaction monitoring), using progesterone-d9 as the internal standard. MRM transitions and parameters were optimized for each analyte, with collision energies of 25 V (S1–S15), 23 V (Zuranolone), and 30 V (IS), and declustering potentials of 80 V (S1–S15), 90 V (Zuranolone), and 180 V (IS). Other conditions were as follows: curtain gas 10 psi, collision gas ‘medium’, ion spray voltage 5500 V, temperature 500 °C, and ionization source gases 1 and 2 at 50 psi.
(§2) To evaluate the metabolic stability of compounds S1–S15 and Zuranolone in RLM and HLM, we designed the following in vitro liver microsome metabolism assay protocol. In a 1.5 mL centrifuge tube, sequentially add 173 μL of PBS (0.1 M, pH 7.4), 5 μL of liver microsomes (20 mg/mL), and 2 μL of the test compound (100 μmol/L). After thorough mixing, pre-incubate at 37 °C for 10 min. Subsequently, add 20 μL of NADPH to initiate the metabolism, with a parallel control without NADPH, to validate the background signal. Samples were collected at 0, 5, 10, 20, 30, and 60 min post-reaction initiation. At each designated time point, we quenched the reaction with ice-cold acetonitrile (600 μL). After centrifuging the mixture, we analyzed the supernatant using UPLC-MS/MS. For data analysis, the compound concentration at 0 min was set as 100%, with concentrations at subsequent time points expressed as residual percentages relative to the initial value, and the in vitro half-life (T1/2) and intrinsic clearance (CLint) were calculated.
On the technique in general: Liver microsomes are a subcellular fraction often used to study metabolism.

Data set [2] concerns the target T1, α1β2γ2 GABAA receptor (Homo sapiens, UniProt P14867+P47870).
T1 construct: expressed in transfected cells
Description: Whole-cell electrophysiology of GABA-evoked currents, LTK cells. The class given is cell-based. Conditions: for EC50 / Emax: LTK cells, n = 3; for EC50: 1 μmol/L GABA (EC20), read-out: α1β2γ2 EC50; for Emax: current induced by 1 μmol/L GABA = 100%; for activity as % of that of Zuranolone: GABAA receptor subtypes. As to the method: (§3) The α1β2γ2 and α4β3δ GABAA receptor subtypes, representing synaptic and extrasynaptic subunit compositions in neurons, are widely utilized for screening new NAS drugs. In this study, a preliminary SAR study was conducted on a series of Zuranolone analogs using the LogP values predicted by ADMETlab3.0 software, recombinant human GABAA receptor cell lines, and in vitro liver microsome stability assays. The results are summarized in Table 1, Table 2, and Table 3, respectively.
(§4) The effects of Zuranolone and synthetic analogs on GABA-evoked currents were assessed in LTK cells stably expressing α1β2γ2 GABAA receptor subunits (n = 3) or CHO cells transiently expressing α4β3δ receptors (n = 3). Whole-cell mode recordings were conducted using the HEKA EPC-10 amplifier and analyzed with PatchMaster software (version 2x90, HEKA Elektronik, Lambrecht, Germany). High-throughput whole-cell recordings were performed using the Q-Patch method from Sophion. Test substances were dissolved in DMSO (dimethyl sulfoxide) to prepare 10 mmol/L stock solutions, then diluted with perfusion bath solution to concentrations ranging from 0.01 to 10 μmol/L. In this experiment, the effects of Zuranolone and its synthetic analogs on GABA-induced currents were examined in the presence of a submaximal agonist concentration at 1 μmol/L GABA (EC20). Cells were pre-incubated with increasing doses of test substances for 30 s, followed by 2 s of GABA stimulation, and currents were recorded. The maximum efficacy (Emax) of the GABAA receptor is expressed with the current induced by 1 μmol/L GABA taken as 100%, and the percentage after treatment with the test compound is calculated. The EC50 values are determined by fitting the three concentration–response curves recorded from three cells.

A short description of data set [3]: Liver microsome metabolic stability (HLM). The class given is in vitro ADME, human. Conditions: pH 7.4; human liver microsomes; read-out: HLM T1/2. As for the experimental part: as §1, §2
Data set [4] concerns the target T2, α4β3δ GABAA receptor (Homo sapiens, UniProt P28472+P48169).
T2 construct: expressed in transfected cells; host or cells: CHO cells (transient expression)
Nature of the data set: Whole-cell electrophysiology of GABA-evoked currents, CHO cells. Particulars: for EC50 / Emax: CHO cells, n = 3; for EC50: 1 μmol/L GABA (EC20), read-out: α4β3δ EC50; for Emax: current induced by 1 μmol/L GABA = 100%. Format: cell-based. As for the experimental part:
as §3, §4

Structures are written as SMILES.

The EC50 is the midpoint of the concentration-response curve. For orientation: Emax means the size of the effect at its maximum, as opposed to the concentration needed.

T2 sequence (P48169 36-554): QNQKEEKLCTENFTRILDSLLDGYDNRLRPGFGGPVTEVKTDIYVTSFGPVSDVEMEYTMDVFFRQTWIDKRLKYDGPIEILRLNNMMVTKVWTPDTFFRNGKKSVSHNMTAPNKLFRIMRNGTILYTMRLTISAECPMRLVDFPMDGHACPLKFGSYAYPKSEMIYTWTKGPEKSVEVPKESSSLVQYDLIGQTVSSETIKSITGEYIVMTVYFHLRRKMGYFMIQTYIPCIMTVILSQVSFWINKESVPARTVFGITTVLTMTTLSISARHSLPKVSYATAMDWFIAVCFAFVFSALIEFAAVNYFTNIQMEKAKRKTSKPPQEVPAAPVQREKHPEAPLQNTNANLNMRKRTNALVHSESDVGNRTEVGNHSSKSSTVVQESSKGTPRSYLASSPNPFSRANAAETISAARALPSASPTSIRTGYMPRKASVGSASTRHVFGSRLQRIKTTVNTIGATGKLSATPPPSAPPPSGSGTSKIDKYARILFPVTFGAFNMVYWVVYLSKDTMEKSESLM
T2 sequence (P28472 26-473): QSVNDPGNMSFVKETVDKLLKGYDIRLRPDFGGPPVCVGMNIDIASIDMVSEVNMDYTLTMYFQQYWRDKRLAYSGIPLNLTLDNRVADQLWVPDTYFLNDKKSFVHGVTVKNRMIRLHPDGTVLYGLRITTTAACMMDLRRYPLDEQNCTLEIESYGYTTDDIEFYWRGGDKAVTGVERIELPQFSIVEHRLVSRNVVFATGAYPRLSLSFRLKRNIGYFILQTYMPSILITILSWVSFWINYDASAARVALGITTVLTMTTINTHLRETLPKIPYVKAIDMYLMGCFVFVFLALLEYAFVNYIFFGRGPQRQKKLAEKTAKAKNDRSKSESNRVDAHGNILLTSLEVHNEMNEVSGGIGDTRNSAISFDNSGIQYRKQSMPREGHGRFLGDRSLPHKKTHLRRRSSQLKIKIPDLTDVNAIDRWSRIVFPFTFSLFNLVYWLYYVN
T2 sequence (O14764 25-452 partner): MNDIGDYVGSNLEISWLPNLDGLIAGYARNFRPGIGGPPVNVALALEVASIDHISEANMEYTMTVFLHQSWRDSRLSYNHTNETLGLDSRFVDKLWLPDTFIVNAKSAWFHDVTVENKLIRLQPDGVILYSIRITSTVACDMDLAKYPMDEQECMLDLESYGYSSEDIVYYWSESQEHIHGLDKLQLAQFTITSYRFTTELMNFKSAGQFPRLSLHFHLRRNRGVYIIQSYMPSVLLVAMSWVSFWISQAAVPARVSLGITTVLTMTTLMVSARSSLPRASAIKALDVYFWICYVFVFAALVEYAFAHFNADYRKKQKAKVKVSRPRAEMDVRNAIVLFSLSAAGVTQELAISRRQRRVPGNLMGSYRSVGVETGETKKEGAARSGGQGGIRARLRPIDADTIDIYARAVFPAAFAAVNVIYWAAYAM
T1 sequence (P14867 28-456): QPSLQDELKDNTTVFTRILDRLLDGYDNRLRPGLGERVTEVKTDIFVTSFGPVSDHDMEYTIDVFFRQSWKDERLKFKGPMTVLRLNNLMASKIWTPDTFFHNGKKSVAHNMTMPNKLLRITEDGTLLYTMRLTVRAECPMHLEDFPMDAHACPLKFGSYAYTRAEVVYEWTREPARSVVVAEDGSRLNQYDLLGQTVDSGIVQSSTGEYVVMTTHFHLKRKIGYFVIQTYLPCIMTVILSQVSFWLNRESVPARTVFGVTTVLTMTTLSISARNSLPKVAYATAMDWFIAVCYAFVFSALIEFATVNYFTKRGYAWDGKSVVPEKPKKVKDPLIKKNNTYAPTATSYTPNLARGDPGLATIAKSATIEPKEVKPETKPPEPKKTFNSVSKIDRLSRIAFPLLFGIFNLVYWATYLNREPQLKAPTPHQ
T1 sequence (P47870 25-512 limits assumed): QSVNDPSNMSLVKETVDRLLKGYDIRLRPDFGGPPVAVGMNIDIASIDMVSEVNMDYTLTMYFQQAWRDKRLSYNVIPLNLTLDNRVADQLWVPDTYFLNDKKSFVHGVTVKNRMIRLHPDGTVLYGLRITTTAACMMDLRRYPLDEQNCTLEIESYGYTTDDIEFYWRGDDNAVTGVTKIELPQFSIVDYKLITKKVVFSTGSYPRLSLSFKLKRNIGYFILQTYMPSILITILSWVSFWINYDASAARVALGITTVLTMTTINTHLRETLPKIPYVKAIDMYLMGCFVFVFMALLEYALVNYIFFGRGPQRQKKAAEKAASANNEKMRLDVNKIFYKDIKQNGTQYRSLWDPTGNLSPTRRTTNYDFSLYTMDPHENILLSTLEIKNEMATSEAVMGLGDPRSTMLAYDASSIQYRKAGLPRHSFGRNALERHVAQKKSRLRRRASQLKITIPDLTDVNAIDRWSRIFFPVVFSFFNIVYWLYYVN
T1 sequence (P18507 40-475 partner): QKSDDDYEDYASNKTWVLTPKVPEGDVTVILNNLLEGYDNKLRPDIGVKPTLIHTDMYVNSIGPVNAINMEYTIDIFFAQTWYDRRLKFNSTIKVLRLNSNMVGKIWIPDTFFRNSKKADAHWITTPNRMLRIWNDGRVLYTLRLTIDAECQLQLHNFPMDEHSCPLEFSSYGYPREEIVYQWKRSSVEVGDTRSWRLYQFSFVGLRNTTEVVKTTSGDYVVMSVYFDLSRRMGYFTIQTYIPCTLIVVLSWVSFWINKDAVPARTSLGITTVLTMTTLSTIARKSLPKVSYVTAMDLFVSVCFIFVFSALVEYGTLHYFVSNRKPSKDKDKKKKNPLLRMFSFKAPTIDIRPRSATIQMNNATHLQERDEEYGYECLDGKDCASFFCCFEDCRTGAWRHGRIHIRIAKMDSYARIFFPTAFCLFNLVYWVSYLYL

As for `COCCn1ncn(CC(=O)[C@H]2CC[C@H]3[C@@H]4CC[C@@H]5C[C@](C)(O)CC[C@@H]5[C@H]4CC[C@]23C)c1=O` [S1], the figures for the half-life at 1 µM in data set [1] and in data set [3] were 11 min and 34 min, respectively. The concentration for a half-maximal effect (EC50) is 0.227 ± 0.052 µM in data set [2] and 0.086 ± 0.025 µM in data set [4]. The Emax in data set [2] was 735 ± 75%; in data set [4], 609 ± 83%.

Consider `C[C@@]1(O)CC[C@H]2[C@H](CC[C@@H]3[C@@H]2CC[C@]2(C)[C@@H](C(=O)Cn4ncn(CC5CC5)c4=O)CC[C@@H]32)C1` [S2], for which, in data set [2], the EC50 amounted to 0.058 ± 0.01 µM and the Emax amounted to 320 ± 25%. Moreover, in data set [4], the EC50 is 0.14 ± 0.01 µM and the maximal response (Emax) is 450 ± 35%.

Regarding `COc1ccc(-n2ncn(CC(=O)[C@H]3CC[C@H]4[C@@H]5CC[C@@H]6C[C@](C)(O)CC[C@@H]6[C@H]5CC[C@]34C)c2=O)cn1` [S3], the half-life at 1 μmol/L in data set [1] came out at 16 min; in data set [3], 73 min. In addition, in data set [2] (not separated), the “activity as % of that of Zuranolone” value was “less than 50%”. For the same compound, the EC50 in data set [2] was found to be 0.167 ± 0.037 µM; in data set [4], 0.134 ± 0.032 µM. The Emax turned out to be 389 ± 50% in data set [2] and 474 ± 53% in data set [4].

As for `Cc1cc(-n2ncn(CC(=O)[C@H]3CC[C@H]4[C@@H]5CC[C@@H]6C[C@](C)(O)CC[C@@H]6[C@H]5CC[C@]34C)c2=O)cc(C)n1` [S4], in data set [2] (not separated), the “activity as % of that of Zuranolone” value is on record as “less than 50%”. For the same compound, in data set [2], the EC50 was 0.171 ± 0.04 µM and the Emax was found to be 691 ± 72%. In data set [4], the EC50 is 0.041 ± 0.019 µM and the Emax was 563 ± 85%.

In the case of `C[C@@]1(O)CC[C@H]2[C@H](CC[C@@H]3[C@@H]2CC[C@]2(C)[C@@H](C(=O)Cn4cnn(-c5cccnc5)c4=O)CC[C@@H]32)C1` [S5], the half-life at 1 μmol/L worked out at 11 min in data set [1] and 24 min in data set [3]. For the same compound, the concentration for a half-maximal effect (EC50) in data set [2] came to 0.373 ± 0.045 µM; in data set [4], 0.061 ± 0.015 µM. In addition, the Emax in data set [2] was found to be 773 ± 87%; in data set [4] it was 391 ± 64%.

In the case of `C[C@@]1(O)CC[C@H]2[C@H](CC[C@@H]3[C@@H]2CC[C@]2(C)[C@@H](C(=O)Cn4cnn(-c5cc(Cl)ccn5)c4=O)CC[C@@H]32)C1` [S7], the half-life at 1 μmol/L in data set [1] came out at 21 min; in data set [3], 69 min. Further, the results for the EC50 in data set [2] and in data set [4] were 0.109 ± 0.027 µM and 0.072 ± 0.021 µM, respectively. The Emax in data set [2] was determined as 624 ± 29%; in data set [4], 589 ± 63%. The “potency higher than Zuranolone” value in data set [2] (synaptic and extrasynaptic GABAA receptor subtypes, not separated) was “approximately 10%”.

Turning to `C[C@@]1(O)CC[C@H]2[C@H](CC[C@@H]3[C@@H]2CC[C@]2(C)[C@@H](C(=O)Cn4cnn(-c5ccnc(C(F)F)c5)c4=O)CC[C@@H]32)C1` [S8], the values for the half-life at 1 μmol/L in data set [1] and in data set [3] were 29 min and 23 min, respectively. The EC50 in data set [2] is 0.083 ± 0.024 µM; in data set [4] it was 0.049 ± 0.015 µM. The maximal effect (Emax) in data set [2] worked out at 600 ± 69%; in data set [4] it was 432 ± 55%. For the same compound, the “potency as % of that of Zuranolone” value in data set [2] (synaptic GABAA receptors) was 140%; in data set [4] (extrasynaptic GABAA receptors), 150%.

Turning to `C[C@@]1(O)CC[C@H]2[C@H](CC[C@@H]3[C@@H]2CC[C@]2(C)[C@@H](C(=O)Cn4ncn(-c5ccc(F)cc5)c4=O)CC[C@@H]32)C1` [S10], the values for the half-life at 1 μmol/L in data set [1] and in data set [3] were 10 min and 33 min, respectively. For the same compound, the “activity as % of that of Zuranolone” value in data set [2] (not separated) was “less than 50%”. Also, the EC50 in data set [2] was 0.0124 ± 0.005 µM; in data set [4], 0.148 ± 0.025 µM. Also, the Emax stood at 294 ± 52% in data set [2] and 428 ± 45% in data set [4].

With `C[C@@]1(O)CC[C@H]2[C@H](CC[C@@H]3[C@@H]2CC[C@]2(C)[C@@H](C(=O)Cn4cnn(-c5cccc(C(N)=O)c5)c4=O)CC[C@@H]32)C1` [S12], the half-life at 1 μmol/L came out at 18 min in data set [1] and 29 min in data set [3]. In addition, in data set [2] (not separated), the “activity as % of that of Zuranolone” value was “less than 50%”. In addition, the EC50 in data set [2] was found to be 0.153 ± 0.033 µM; in data set [4], 0.159 ± 0.02 µM. For the same compound, the Emax was determined as 764 ± 65% in data set [2] and 386 ± 50% in data set [4].

Regarding `C[C@@]1(O)CC[C@H]2[C@H](CC[C@@H]3[C@@H]2CC[C@]2(C)[C@@H](C(=O)Cn4cnn(-c5cc(F)cc(C#N)c5)c4=O)CC[C@@H]32)C1` [S13], the half-life at 1 μmol/L in data set [1] came to 90 min; in data set [3], 40 min. The concentration giving a half-maximal response (EC50) in data set [2] worked out at 0.072 ± 0.016 µM; in data set [4] it was 0.037 ± 0.012 µM. Besides, the values for the Emax in data set [2] and in data set [4] were 518 ± 87% and 549 ± 101%, respectively.

Consider `C[C@@]1(O)CC[C@H]2[C@H](CC[C@@H]3[C@@H]2CC[C@]2(C)[C@@H](C(=O)Cn4cnn(CCOC(F)(F)F)c4=O)CC[C@@H]32)C1` [S14], for which the half-life at 1 μmol/L in data set [1] worked out at 23 min; in data set [3], 31 min. Moreover, the EC50 in data set [2] was determined as 0.77 ± 0.104 µM; in data set [4], 0.46 ± 0.059 µM. Further, the Emax in data set [2] amounted to 576 ± 78%; in data set [4] it was 889 ± 126%.

For the compound `C[C@@]1(O)CC[C@H]2[C@H](CC[C@@H]3[C@@H]2CC[C@]2(C)[C@@H](C(=O)Cn4c(=O)n(-c5ccccc5)c5ccccc54)CC[C@@H]32)C1` [S15], the half-life at 1 μmol/L was 210 min in data set [1] and 248 min in data set [3]. The half-maximal effective concentration (EC50) stood at 0.031 ± 0.012 µM in data set [2] and 0.055 ± 0.015 µM in data set [4]. In addition, the Emax was found to be 305 ± 62% in data set [2] and 470 ± 94% in data set [4].
